Laboratory results reported in PubChem BioAssay AID256 (DTP/NCI, 2004).
Inconclusive results and toxic doses are left out. The calls were made as follows: active = survival T/C of 150% or more; inactive = T/C below 125% in these data.

Tested on: CD2F1 mice, L1210 leukemia ip, survival T/C
Assay: NCI In Vivo Anticancer Drug Screen. Data for tumor model L1210 Leukemia (intraperitoneal) in CD2F1 (CDF1) mice
Details: higher = longer survival
Method in brief: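 Mice carrying a transplanted tumor received test compound or vehicle alone. The value is the measurement in the treated group divided by that in the vehicle-treated control group.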

[1] = endpoint: mean survival time, dose: 100.0 mg/kg/injection, schedule: Q01DX009 (ip), vehicle: Klucel (hydroxypropylcellulose) (HPC)
[2] = endpoint: mean survival time, dose: 200.0 mg/kg/injection, schedule: Q01DX009 (ip), vehicle: Klucel (hydroxypropylcellulose) (HPC)
[3] = endpoint: mean survival time, dose: 100.0 mg/kg/injection, schedule: Q01DX009 (ip), vehicle: saline with Tween-80
[4] = endpoint: mean survival time, dose: 100.0 mg/kg/injection, schedule: Q04DX003 (ip), vehicle: saline with Tween-80
[5] = endpoint: mean survival time, dose: 200.0 mg/kg/injection, schedule: Q04DX003 (ip), vehicle: saline with Tween-80
[6] = endpoint: mean survival time, dose: 400.0 mg/kg/injection, schedule: Q04DX003 (ip), vehicle: saline with Tween-80
[7] = endpoint: mean survival time, dose: 25.0 mg/kg/injection, schedule: Q01DX009 (ip), vehicle: saline
[8] = endpoint: mean survival time, dose: 50.0 mg/kg/injection, schedule: Q01DX009 (ip), vehicle: saline
[9] = endpoint: mean survival time, dose: 100.0 mg/kg/injection, schedule: Q01DX009 (ip), vehicle: saline
[10] = endpoint: median survival time, dose: 25.0 mg/kg/injection, schedule: Q01DX009 (ip), vehicle: Klucel (hydroxypropylcellulose) (HPC)
[11] = endpoint: median survival time, dose: 50.0 mg/kg/injection, schedule: Q01DX009 (ip), vehicle: Klucel (hydroxypropylcellulose) (HPC)
[12] = endpoint: median survival time, dose: 100.0 mg/kg/injection, schedule: Q01DX009 (ip), vehicle: Klucel (hydroxypropylcellulose) (HPC)
[13] = endpoint: median survival time, dose: 200.0 mg/kg/injection, schedule: Q01DX009 (ip), vehicle: Klucel (hydroxypropylcellulose) (HPC)
[14] = endpoint: mean survival time, dose: 50.0 mg/kg/injection, schedule: Q01DX009 (ip), vehicle: saline with Tween-80
[15] = endpoint: mean survival time, dose: 100.0 mg/kg/injection, schedule: Q01DX001 (ip), vehicle: saline with Tween-80
[16] = endpoint: mean survival time, dose: 200.0 mg/kg/injection, schedule: Q01DX001 (ip), vehicle: saline with Tween-80
[17] = endpoint: mean survival time, dose: 200.0 mg/kg/injection, schedule: Q01DX009 (ip), vehicle: saline with Tween-80

Measured: T/C

COC1CC(C)C(OC)c2cc(O)cc(c2O)NC(=O)/C(C)=C/C=C\C(C)C(OC(N)=O)/C(C)=C\C(C)C1OC (stereo not given)
inactive: endpoint: median survival time, dose: 1.25 mg/kg/injection, schedule: Q01DX009 (ip), vehicle: saline + alcohol 105 % of control | endpoint: median survival time, dose: 2.5 mg/kg/injection, schedule: Q01DX009 (ip), vehicle: saline + alcohol 105 % of control | endpoint: median survival time, dose: 5.0 mg/kg/injection, schedule: Q01DX009 (ip), vehicle: saline + alcohol 105 % of control | endpoint: median survival time, dose: 10.0 mg/kg/injection, schedule: Q01DX009 (ip), vehicle: saline + alcohol 110 % of control | endpoint: median survival time, dose: 20.0 mg/kg/injection, schedule: Q01DX009 (ip), vehicle: saline + alcohol 107 % of control

CN(C)c1ccc(Cc2ccc(N(C)C)nc2)cn1
inactive: [1] 104 % of control | [2] 98 % of control | endpoint: mean survival time, dose: 400.0 mg/kg/injection, schedule: Q01DX009 (ip), vehicle: Klucel (hydroxypropylcellulose) (HPC) 92 % of control

CC(C(=O)c1ccccc1)N(C)c1ccccc1 (stereo not given)
inactive: endpoint: mean survival time, dose: 100.0 mg/kg/injection, schedule: Q04DX003 (ip), vehicle: saline 107 % of control | endpoint: mean survival time, dose: 200.0 mg/kg/injection, schedule: Q04DX003 (ip), vehicle: saline 100 % of control | endpoint: mean survival time, dose: 400.0 mg/kg/injection, schedule: Q04DX003 (ip), vehicle: saline 102 % of control

CN1CCN(CCCN2C(=O)C3CC=CCC3C2=O)CC1 (stereo not given)
inactive: endpoint: mean survival time, dose: 100.0 mg/kg/injection, schedule: Q01DX001 (ip), vehicle: saline 102 % of control | endpoint: mean survival time, dose: 200.0 mg/kg/injection, schedule: Q01DX001 (ip), vehicle: saline 93 % of control

Cc1ccc(C2(c3ccccc3)OC(=O)c3ccccc32)cc1 (stereo not given)
inactive: [3] 86 % of control | [4] 89 % of control | [5] 87 % of control | [6] 86 % of control

CC(C)c1nn[nH]n1
inactive: endpoint: median survival time, dose: 50.0 mg/kg/injection, schedule: Q01DX009 (ip), vehicle: saline + alcohol 93 % of control | endpoint: median survival time, dose: 100.0 mg/kg/injection, schedule: Q01DX009 (ip), vehicle: saline + alcohol 91 % of control | endpoint: median survival time, dose: 200.0 mg/kg/injection, schedule: Q01DX009 (ip), vehicle: saline + alcohol 100 % of control | endpoint: median survival time, dose: 400.0 mg/kg/injection, schedule: Q01DX009 (ip), vehicle: saline + alcohol 93 % of control

C#CCOC1CCCCO1 (stereo not given)
inactive: [7] 102 % of control | [8] 108 % of control | [9] 106 % of control

Cc1cc(O)c(N=Nc2ccc(C(=O)O)cc2)cc1C
inactive: endpoint: mean survival time, dose: 12.5 mg/kg/injection, schedule: Q01DX009 (ip), vehicle: saline 106 % of control | endpoint: mean survival time, dose: 12.5 mg/kg/injection, schedule: Q01DX009 (ip), vehicle: suspension in saline 97 % of control | [7] 110 % of control | endpoint: mean survival time, dose: 25.0 mg/kg/injection, schedule: Q01DX009 (ip), vehicle: suspension in saline 101 % of control | [8] 111 % of control | endpoint: mean survival time, dose: 50.0 mg/kg/injection, schedule: Q01DX009 (ip), vehicle: suspension in saline 95 % of control | [9] 94 % of control | endpoint: mean survival time, dose: 100.0 mg/kg/injection, schedule: Q01DX009 (ip), vehicle: suspension in saline 94 % of control | endpoint: mean survival time, dose: 200.0 mg/kg/injection, schedule: Q01DX009 (ip), vehicle: suspension in saline 97 % of control | endpoint: mean survival time, dose: 400.0 mg/kg/injection, schedule: Q01DX009 (ip), vehicle: saline 93 % of control | endpoint: mean survival time, dose: 400.0 mg/kg/injection, schedule: Q01DX009 (ip), vehicle: suspension in saline 101 % of control

Cc1ccc(C2NC(=S)N3C(c4ccc(C)cc4)NC(=S)N23)cc1 (stereo not given)
inactive: [10] 105 % of control | [11] 104 % of control | [12] 106 % of control | [13] 104 % of control | endpoint: median survival time, dose: 400.0 mg/kg/injection, schedule: Q01DX009 (ip), vehicle: Klucel (hydroxypropylcellulose) (HPC) 101 % of control | endpoint: median survival time, dose: 800.0 mg/kg/injection, schedule: Q01DX009 (ip), vehicle: Klucel (hydroxypropylcellulose) (HPC) 106 % of control

O=c1oc2ccccc2c(O)c1-c1cccc2ccccc12
inactive: endpoint: mean survival time, dose: 12.5 mg/kg/injection, schedule: Q01DX009 (ip), vehicle: saline with Tween-80 91 % of control | endpoint: mean survival time, dose: 25.0 mg/kg/injection, schedule: Q01DX009 (ip), vehicle: saline with Tween-80 103 % of control | [14] 100 % of control

OCC1OC(Oc2ccccc2)C(O)C1O (stereo not given)
inactive: endpoint: mean survival time, dose: 75.0 mg/kg/injection, schedule: Q01DX001 (ip), vehicle: saline 93 % of control | endpoint: mean survival time, dose: 150.0 mg/kg/injection, schedule: Q01DX001 (ip), vehicle: saline 98 % of control | endpoint: mean survival time, dose: 300.0 mg/kg/injection, schedule: Q01DX001 (ip), vehicle: saline 98 % of control

CC(C)OC(=O)Nc1ccccc1Cl
inactive: endpoint: mean survival time, dose: 100.0 mg/kg/injection, schedule: Q04DX003 (ip), vehicle: saline sonified 92 % of control | endpoint: mean survival time, dose: 200.0 mg/kg/injection, schedule: Q04DX003 (ip), vehicle: saline sonified 94 % of control | endpoint: mean survival time, dose: 400.0 mg/kg/injection, schedule: Q04DX003 (ip), vehicle: saline sonified 94 % of control

CCN1/C(=C/c2ccc3ccccc3[n+]2CC)C=Cc2ccccc21
inactive: endpoint: mean survival time, dose: 0.25 mg/kg/injection, schedule: Q01DX001 (ip), vehicle: other 95 % of control | endpoint: mean survival time, dose: 0.5 mg/kg/injection, schedule: Q01DX001 (ip), vehicle: other 97 % of control | endpoint: mean survival time, dose: 1.0 mg/kg/injection, schedule: Q01DX001 (ip), vehicle: other 95 % of control

O=c1[nH]cnc2c1cnn2CN1CCOCC1
inactive: [10] 106 % of control | [11] 106 % of control | [12] 110 % of control | [13] 114 % of control

O=C(COc1ccc(Cl)c(Cl)c1)NCc1ccc(Cl)cc1
inactive: [4] 97 % of control | [5] 95 % of control | [6] 93 % of control

CC(=O)N(C(C)=O)c1ccccc1
inactive: [4] 97 % of control | [5] 97 % of control | [6] 103 % of control

CN(C)/N=C/c1cccc(CC(O)(C(F)(F)F)C(F)(F)F)n1
inactive: [14] 94 % of control | [15] 105 % of control | [3] 96 % of control | [16] 100 % of control | [17] 97 % of control

CC(C)OC(=O)CCl
inactive: [15] 100 % of control | [16] 100 % of control

COc1cc2c(cc1OC)C(C#N)N(C(=O)c1ccccc1)C=C2 (stereo not given)
inactive: endpoint: mean survival time, dose: 25.0 mg/kg/injection, schedule: Q01DX009 (ip), vehicle: water 93 % of control | endpoint: mean survival time, dose: 50.0 mg/kg/injection, schedule: Q01DX009 (ip), vehicle: water 100 % of control | endpoint: mean survival time, dose: 100.0 mg/kg/injection, schedule: Q01DX009 (ip), vehicle: water 93 % of control | endpoint: mean survival time, dose: 200.0 mg/kg/injection, schedule: Q01DX009 (ip), vehicle: water 94 % of control | endpoint: mean survival time, dose: 400.0 mg/kg/injection, schedule: Q01DX009 (ip), vehicle: water 86 % of control

Clc1ccc2c(CBr)ccnc2c1
inactive: endpoint: mean survival time, dose: 50.0 mg/kg/injection, schedule: Q04DX003 (ip), vehicle: other 110 % of control | endpoint: mean survival time, dose: 100.0 mg/kg/injection, schedule: Q04DX003 (ip), vehicle: other 112 % of control

Cc1cncn1Cc1ccccc1
inactive: endpoint: mean survival time, dose: 50.0 mg/kg/injection, schedule: Q01DX009 (ip), vehicle: Klucel (hydroxypropylcellulose) (HPC) 94 % of control | [1] 108 % of control | [2] 103 % of control

O=C1C=C(O)C2C(=O)C1C1/C(=[N+](/[O-])O)C=C([N+](=O)[O-])C2C1[N+](=O)[O-] (stereo not given)
inactive: endpoint: mean survival time, dose: 100.0 mg/kg/injection, schedule: Q04DX002 (ip), vehicle: saline with Tween-80 98 % of control | endpoint: mean survival time, dose: 200.0 mg/kg/injection, schedule: Q04DX002 (ip), vehicle: saline with Tween-80 110 % of control | endpoint: mean survival time, dose: 400.0 mg/kg/injection, schedule: Q04DX002 (ip), vehicle: saline with Tween-80 98 % of control

O=C(NC(Cc1c[nH]c2ccccc12)C(=O)O)c1ccccc1 (stereo not given)
inactive: [3] 108 % of control | [4] 109 % of control | [17] 100 % of control | [5] 98 % of control | endpoint: mean survival time, dose: 400.0 mg/kg/injection, schedule: Q01DX009 (ip), vehicle: saline with Tween-80 104 % of control | [6] 103 % of control | endpoint: mean survival time, dose: 600.0 mg/kg/injection, schedule: Q01DX009 (ip), vehicle: saline with Tween-80 108 % of control
